Test results from patent US20240010620A1, “ARYLAZABICYCLO[2.1.1]HEXYLMETHANOLS DERIVATIVES AND MEDICAL USES THEREOF” (ATROGI AB, priority 2020, published 2024).

Legend:
Type in all cases: cell-based
L6-myotubes [1] = test: Glucose uptake in differentiated L6-myotubes (3H-2-deoxy-glucose); conditions: agonist final concentration 1×10^−5, 3H-2-deoxy-glucose uptake
Description: L6-myoblasts were grown in Dulbecco's Modified Eagle's Medium (DMEM) containing 4,5 g/I glucose supplemented with 10% fetal bovine serum, 2 mM L-Glutamine, 50 U/ml penicillin, 50 μg/ml streptomycin and 10 mM HEPES. Cells were plated at 1×10^5 cells per ml in 24-well plates. After reaching 90% confluence the cells were grown in medium containing 2% FBS for 7 days where upon cells differentiated into myotubes. Differentiated L6-myotubes were serum-starved over night in medium containing 0.5% fatty-acid free BSA and stimulated with agonist, final concentration 1×10^−5. After 1 h 40 min cells were washed with warm, glucose free medium or PBS and another portion of agonist was added to glucose free medium. After 20 min the cells were exposed to 50 nM ^3H-2-deoxy-glucose for another 10 min before washed in ice cold glucose free medium or PBS and lysed in 0.2 M NaOH for 1 h in 60° C.

L6-myotubes [2] = test: Measurement of intracellular cAMP levels (alpha screen cAMP kit); conditions: differentiated cells; agonist final concentration 1×10^−5, 15 min; 1 mM IBMX
Description: L6-myoblasts were grown in Dulbecco's Modified Eagle's Medium (DMEM) containing 4,5 g/I glucose supplemented with 10% fetal bovine serum, 2 mM L-Glutamine, 50 U/ml penicillin, 50 μg/ml streptomycin and 10 mM HEPES. Cells were plated at 1×10^5 cells per ml in 24-well plates. After reaching 90% confluence the cells were grown in medium containing 2% FBS for 7 days where upon cells differentiated into myotubes. Differentiated cells were serum-starved over night and stimulated with agonist, final concentration 1×10^−5, for 15 min in stimulation buffer (HBSS supplemented with 1% BSA, 5 mM HEPES and 1 mM IBMX, pH 7.4) The medium was then aspirated and to end the reaction 100 μL of 95% EtOH was added to each well of a 24-well plate and cells were kept in −20° C. over night. The EtOH was let to evaporate and 500 μL of lysis buffer (1% BSA, 5 mM HEPES and 0.3% Tween-20, pH 7.4) was added to each well before put in −80° C. for 30 min and then kept in −20° C. Intracellular cAMP levels were detected using an alpha screen cAMP kit (6760635D from Perkin Elmer). The activity for each compound is compared to that of isoproterenol.

L6-myotubes [3] = test: Glucose uptake in the presence of the β2-adrenergic receptor antagonist ICI-118,551; conditions: differentiated L6-myotubes; compound 1×10^−5 M; ICI-118,551 1×10^−5 M
Description: L6-myoblasts were grown in Dulbecco's Modified Eagle's Medium (DMEM) containing 4,5 g/I glucose supplemented with 10% fetal bovine serum, 2 mM L-Glutamine, 50 U/ml penicillin, 50 μg/ml streptomycin and 10 mM HEPES. Cells were plated at 1×10^5 cells per ml in 24-well plates. After reaching 90% confluence the cells were grown in medium containing 2% FBS for 7 days where upon cells differentiated into myotubes. Differentiated L6-myotubes were serum-starved overnight in medium containing 0.5% fatty-acid free BSA and were incubated with the β2-adrenergic receptor antagonist ICI-118,551 at a final concentration of 1×10^−5 M for 30 min. The cells were stimulated with a compound of the invention, at a final concentration of 1×10^−5 M. After 1 h 40 min the cells were washed twice with warm, glucose free medium or PBS and additional portions of the compound of the invention and the antagonist were added. After 20 min the cells were exposed to 50 nM ^3H-2-deoxyglucose for 10 min before washed with ice cold glucose free medium or PBS three times and lysed with 0.2 M NaOH, 400 μL/well, for 1 h at 60° C. The cell lysate was mixed with 4 mL scintillation buffer (Emulsifier Safe, Perkin Elmer) and the radioactivity was detected in a β-counter (Tri-Carb 4810TR, Perkin Elmer). The activity for each compound is compared to that of isoproterenol.

Row | Structure (SMILES) | Biological example 1: glucose uptake, activity compared to that of isoproterenol (L6-myotubes [1]) | Biological example 2: intracellular cAMP levels, activity compared to that of isoproterenol (L6-myotubes [2]) | Biological example 3: glucose uptake in the presence of ICI-118,551, activity compared to that of isoproterenol (L6-myotubes [3])
1 | CC12CC(C1)[C@@H]([C@@H](O)c1cccc(F)c1)N2.Cl [Example 2, (S)-(3-Fluorophenyl)((S)-1-methyl-2-azabicyclo[2.1.1]hexan-3-yl)methanol hydrochloride] | ++ (between 75 and 50%) | − (less than 25%) | 
2 | CC12CC(C1)[C@@H]([C@H](O)c1cccc(F)c1)N2.Cl [Example 4, (R)-(3-Fluorophenyl)((S)-1-methyl-2-azabicyclo[2.1.1]hexan-3-yl)methanol hydrochloride] | − (less than 25%) | − (less than 25%) | 
3 | CC12CC(C1)[C@@H]([C@@H](O)c1cccc(Cl)c1)N2.Cl [Example 6, (S)-(3-Chlorophenyl)((S)-1-methyl-2-azabicyclo[2.1.1]hexan-3-yl)methanol hydrochloride] | + (between 50 and 25%) | − (less than 25%) | 
4 | CC12CC(C1)[C@@H]([C@@H](O)c1ccccc1F)N2.Cl [Example 10, (S)-(2-Fluorophenyl)((S)-1-methyl-2-azabicyclo[2.1.1]hexan-3-yl)methanol hydrochloride] | +++ (activity of more than 75% of that of isoproterenol) | − (less than 25%) | 
5 | CC12CC(C1)[C@H]([C@H](O)c1cccc(N)c1F)N2.Cl [Example 17, (R)-(3-Amino-2-fluorophenyl)((R)-1-methyl-2-azabicyclo[2.1.1]hexan-3-yl)methanol hydrochloride] | +++ (activity of more than 75% of that of isoproterenol) | − (less than 25%) | 
6 | CC12CC(C1)[C@H]([C@@H](O)c1cncc(F)c1)N2 [Example 15, (S)-(5-Fluoropyridin-3-yl)((R)-1-methyl-2-azabicyclo[2.1.1]hexan-3-yl)-methanol] | − (less than 25%) | − (less than 25%) | 
7 | CC12CC(C1)[C@H]([C@@H](O)c1ccccc1F)N2.Cl [Example 11] | +++ (activity of more than 75% of that of isoproterenol) | − (less than 25%) | − (less than 25%)
8 | CC12CC(C1)[C@H]([C@@H](O)c1cccc(F)c1)N2.Cl [Example 3, (S)-(3-Fluorophenyl)((R)-1-methyl-2-azabicyclo[2.1.1]hexan-3-yl)methanol hydrochloride] | + (between 50 and 25%) | − (less than 25%) | 
9 | CC12CC(C1)[C@@H]([C@@H](O)c1cccc(N)c1F)N2.Cl [Example 18, (S)-(3-Amino-2-fluorophenyl)((S)-1-methyl-2-azabicyclo[2.1.1]hexan-3-yl)methanol hydrochloride] | ++ (between 75 and 50%) | − (less than 25%) | 
10 | CC12CC(C1)[C@H]([C@@H](O)c1cccc(Cl)c1)N2.Cl [Example 7, (S)-(3-Chlorophenyl)((R)-1-methyl-2-azabicyclo[2.1.1]hexan-3-yl)methanol hydrochloride] | ++ (between 75 and 50%) | − (less than 25%) | 
11 | CC12CC(C1)[C@H]([C@H](O)c1cncc(F)c1)N2 [Example 13, (R)-(5-Fluoropyridin-3-yl)((R)-1-methyl-2-azabicyclo[2.1.1]hexan-3-yl)-methanol] | +++ (activity of more than 75% of that of isoproterenol) | − (less than 25%) | 
12 | CC12CC(C1)[C@H]([C@H](O)c1cccc(F)c1)N2.Cl [Example 1, (R)-(3-Fluorophenyl)((R)-1-methyl-2-azabicyclo[2.1.1]hexan-3-yl)methanol hydrochloride] | +++ (activity of more than 75% of that of isoproterenol) | ++ (between 75 and 50%) | 
13 | CC12CC(C1)[C@@H]([C@H](O)c1ccccc1F)N2.Cl [Example 12, (R)-(2-Fluorophenyl)((S)-1-methyl-2-azabicyclo[2.1.1]hexan-3-yl)methanol hydrochloride] | +++ (activity of more than 75% of that of isoproterenol) | − (less than 25%) | 
14 | CC12CC(C1)[C@H]([C@H](O)c1cccc(Cl)c1)N2.Cl [Example 5, (R)-(3-Chlorophenyl)((R)-1-methyl-2-azabicyclo[2.1.1]hexan-3-yl)methanol hydrochloride] | +++ (activity of more than 75% of that of isoproterenol) | − (less than 25%) | 
15 | CC12CC(C1)[C@@H]([C@H](O)c1cccc(N)c1F)N2.Cl [Example 20, (R)-(3-Amino-2-fluorophenyl)((S)-1-methyl-2-azabicyclo[2.1.1]hexan-3-yl)methanol hydrochloride] | ++ (between 75 and 50%) | − (less than 25%) | 
16 | CC12CC(C1)[C@@H]([C@@H](O)c1cncc(F)c1)N2 [Example 14, (S)-(5-Fluoropyridin-3-yl)((S)-1-methyl-2-azabicyclo[2.1.1]hexan-3-yl)-methanol] | ++ (between 75 and 50%) | − (less than 25%) | 
17 | CC12CC(C1)[C@@H]([C@H](O)c1cncc(F)c1)N2 [Example 16, (R)-(5-Fluoropyridin-3-yl)((S)-1-methyl-2-azabicyclo[2.1.1]hexan-3-yl)-methanol] | + (between 50 and 25%) | − (less than 25%) | 
18 | CC12CC(C1)[C@H]([C@H](O)c1ccccc1F)N2.Cl [Example 9, (R)-(2-Fluorophenyl)((R)-1-methyl-2-azabicyclo[2.1.1]hexan-3-yl)methanol hydrochloride] | +++ (activity of more than 75% of that of isoproterenol) | +++ (activity of more than 75% of that of isoproterenol) | 
19 | CC12CC(C1)[C@@H]([C@H](O)c1cccc(Cl)c1)N2.Cl [Example 8, (R)-(3-Chlorophenyl)((S)-1-methyl-2-azabicyclo[2.1.1]hexan-3-yl)methanol hydrochloride] | + (between 50 and 25%) | − (less than 25%) | 
20 | CC12CC(C1)[C@H]([C@@H](O)c1cccc(N)c1F)N2.Cl [Example 19, (S)-(3-Amino-2-fluorophenyl)((R)-1-methyl-2-azabicyclo[2.1.1]hexan-3-yl)methanol hydrochloride] | ++ (between 75 and 50%) | − (less than 25%) | 
